Experimental data published in US20190201721A1, “ORAL CARE PRODUCTS AND METHODS COMPRISING HYDROXYAPATITE BINDING PROTEINS” (BASF SE, priority 2015, published 2019).

biological target: T1, human TRPM8 receptor (Homo sapiens, UniProt Q7Z2W7); assay: Assay on TRPM8 activation (HEK293-TRPM8 cells, Ca2+-sensitive dye Fluo-4); assay type: cell-based; settings: before and after incubation with saliva
T1 construct: expressed in transfected cells; host or cells: HEK293-TRPM8 (transformed HEK cells, tetracycline-inducible expression)
T1 sequence (Q7Z2W7 whole entry): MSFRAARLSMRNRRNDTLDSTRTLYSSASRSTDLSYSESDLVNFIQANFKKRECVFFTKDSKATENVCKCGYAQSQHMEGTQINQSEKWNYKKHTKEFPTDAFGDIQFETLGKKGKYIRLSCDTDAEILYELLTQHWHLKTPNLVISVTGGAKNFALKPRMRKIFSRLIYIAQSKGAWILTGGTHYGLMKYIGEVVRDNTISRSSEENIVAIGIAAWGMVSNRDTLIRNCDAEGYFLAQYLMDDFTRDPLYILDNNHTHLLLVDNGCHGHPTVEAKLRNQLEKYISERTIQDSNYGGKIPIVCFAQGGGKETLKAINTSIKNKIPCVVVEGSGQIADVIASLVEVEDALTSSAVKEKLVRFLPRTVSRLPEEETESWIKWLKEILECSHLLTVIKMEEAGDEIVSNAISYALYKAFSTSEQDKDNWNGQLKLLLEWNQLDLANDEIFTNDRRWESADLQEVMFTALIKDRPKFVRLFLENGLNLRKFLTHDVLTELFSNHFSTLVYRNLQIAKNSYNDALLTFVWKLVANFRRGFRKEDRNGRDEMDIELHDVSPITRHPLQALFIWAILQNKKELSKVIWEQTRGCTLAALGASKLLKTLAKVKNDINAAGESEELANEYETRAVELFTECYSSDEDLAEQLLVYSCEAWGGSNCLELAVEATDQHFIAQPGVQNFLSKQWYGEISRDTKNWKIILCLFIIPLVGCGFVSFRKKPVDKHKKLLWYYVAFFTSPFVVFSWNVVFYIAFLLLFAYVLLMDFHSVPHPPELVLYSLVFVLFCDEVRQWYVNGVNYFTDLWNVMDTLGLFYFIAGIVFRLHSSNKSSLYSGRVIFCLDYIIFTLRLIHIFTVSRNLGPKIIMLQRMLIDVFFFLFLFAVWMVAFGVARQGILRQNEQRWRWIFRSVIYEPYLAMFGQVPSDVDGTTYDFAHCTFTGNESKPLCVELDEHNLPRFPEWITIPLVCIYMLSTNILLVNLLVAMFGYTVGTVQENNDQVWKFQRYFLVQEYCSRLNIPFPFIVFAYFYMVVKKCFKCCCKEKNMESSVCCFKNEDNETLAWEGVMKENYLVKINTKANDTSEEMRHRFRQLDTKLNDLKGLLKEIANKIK
Experimental: The HABP peptide—cooling compound-hybrid molecules of example 4 (1 μM in Tris buffer pH 8) were incubated with pooled human saliva (5 donors) 1:1 or as reference 1:1 in Tris buffer pH 8; 37° C., for 2 hrs at 37° C. Samples were frozen until evaluation in a cell based assay for activation of the human TRPM8 receptor.
The agonisation or antagonisation of the receptor was quantified by means of a Ca^2+-sensitive dye (e.g. FURA, Fluo-4, etc.). […] To begin with, in a manner known per se, in cell culture flasks a fresh culture of transformed HEK cells was prepared. […] Addition of the test samples in quantities of 50 μl/well and measurement of the change in fluorescence (e.g. in the FLIPR assay device, Molecular Devices or NovoStar, BMG) at 485 nm excitation, 520 nm emission, and evaluation of the effective strength of the various substances/concentrations and determination of the EC50 values.

Row | Molecule | bioactivity on the human cool receptor TRPM8
1 | CC1CCC(C(C)C)C(O)C1 (centres unmarked) [menthol] | bioactive

tested on: not given; assay: not given; settings: described by Yarbrough et al. 2010; used as negative control; cited from earlier work

Row | Molecule | binding to hydroxyapatite as described in literature
2 | LIKHILHRL | non-binding

tested on: not listed separately; assay: Binding to and release from calcium phosphate discs (HA-discs) after saliva incubation; settings: read out by TRPM8 activation of the supernatant
Experimental: The hybrid molecules of example 4 (5 μM in Tris buffer pH 8) were incubated with calcium phosphate discs (HA-discs from Himed) at 37° C. for 1 hr. Unbound molecules were removed by washing 3-times with Tris buffer. The coated calcium phosphate discs were incubated with buffer as a control and in parallel with pooled human saliva (5 donors; 37° C., for 2 hrs). The supernatant was centrifuged and evaluated for cooling activity by specific activation of human cool receptor TRPM8.
The agonisation or antagonisation of the receptor was quantified by means of a Ca^2+-sensitive dye (e.g. FURA, Fluo-4, etc.). Agonists on their own bring about an increase in the Ca^2+-signal; antagonists in the presence of, for example, menthol bring about a reduction in the Ca^2+-signal (in each case detected by means of the Fluo-4 dye, which due to the Ca^2+ has other fluorescent properties). To begin with, in a manner known per se, in cell culture flasks a fresh culture of transformed HEK cells was prepared. […] Addition of the test samples in quantities of 50 μl/well and measurement of the change in fluorescence (e.g. in the FLIPR assay device, Molecular Devices or NovoStar, BMG) at 485 nm excitation, 520 nm emission, and evaluation of the effective strength of the various substances/concentrations and determination of the EC50 values. […]

Row | Molecule | bound on hydroxyapatite / released after incubation with human saliva
3 | CC1CCC(C(C)C)C(O)C1 (centres unmarked) [menthol] | nothing is bound on hydroxyapatite

tested on: not listed separately; assay: Binding assay of carboxyfluorescein-labeled peptides/proteins to hydroxyapatite powder; settings: 2 μM N-terminal labeled peptide/protein, 10 mg hydroxyapatite powder, HBS-T buffer, 2 h, 37° C.
Experimental: i. Petide/Protein Labeling For binding studies 5(6)-carboxyfluorescein was conjugated to the N-terminus of the peptides/proteins by using the corresponding succinimidyl ester (Invitrogen, Darmstadt, Germany). The labeling reaction was performed according to the manufactures protocol (Invitrogen, Darmstadt, Germany). After conjugation, the labeled peptide/protein was purified either with a PD-10 desalting column for proteins larger than 5 kDa or a PD MidiTrap G-10 for smaller proteins (GE Healthcare, Buckinghamshire, UK) or for peptides by HPLC on RP18 column. ii. Peptide/Protein Binding For the binding experiments N-terminal labeled peptides/proteins were used in a final concentration of 2 μM. The binding was carried out in HBS-T buffer (150 mM NaCl, 50 mM HEPES pH 7.5, 0.1% Tween 20). The peptides/proteins were exposed to 10 mg hydroxyapatite powder (Fluke) for 2 h at 37° C. After five wash steps with HBS-T buffer the bound peptide/protein was visualized by fluorescence microscopy with the appropriate filters (excitation 475/50; emission 525/50). To quantify the binding, the fluorescence intensity of the solution before (Fi) and after (Ff) binding was measured with a Fluostar Galaxy (BMG, Ortenberg, Germany) and the amount of bound peptide/protein was estimated (cbound=[1−(Ff/Fi)]×c0). The peptide LIKHILHRL, which was described as a non-binding peptide to hydroxyapatite, was used as a negative control [Yarbrough D K, Hagerman E, Eckert R, He J, Choi H, Cao N, et al. Specific binding and mineralization of calcified surfaces by small peptides. Calcif Tissue Int 2010; 86(1):58-66.]. All binding experiments were carried out as triplicates. Evaluation: +: 30-50% bound peptide on HAP; ++: 50-100% bound peptide on HAP

Row | Molecule | bound peptide on HAP
4 | AFP4-His6 (protein, His6 tag) MRFIVSLLAFTAAATATALPASAAKNAKLATSAAFAKQAEGTTCNVGSIACCNSPAETNNDSLLSGLLGAGLLNGLSGNTGSACAKASLIDQLGLLALVDHTEEGPVCKNIVACCPEGTTNCVAVDNAGAGTKAE | (35%)
5 | IPTLPSS-GGG-AFP4-His6 (protein, fusion of HABP peptide IPTLPSS via GGG spacer to antifreeze protein AFP4-His6) MKFSIAAAVVAFAASVAALPPAHDSQFAGNGVGNKGNSNVKFPVPENVTVKQASDKCGDQAQLSCCNKATYAGDTTTVDEGLLSGALSGLIGAGSGAEGLGLFDQCSKLDVAVLIGIQDLVNQKCKQNIACCQNSPSSADGNLIGVGLPCVALGSIL | (60%)

same assay, conditions: 2 μM N-terminal labeled peptide/protein, 10 mg hydroxyapatite powder, HBS-T buffer, 2 h, 37° C., triplicates

Row | Molecule | bound peptide on HAP (evaluation class)
6 | EHITTSN [SEQ ID NO: 9] | + (+: 30-50% bound peptide on HAP)
7 | GKVQAQS [SEQ ID NO: 5] | + (+: 30-50% bound peptide on HAP)
8 | GSPATAA [SEQ ID NO: 4] | + (+: 30-50% bound peptide on HAP)
9 | HPPLHHA [SEQ ID NO: 2] | + (+: 30-50% bound peptide on HAP)
10 | IDDYTRA [SEQ ID NO: 1] | ++ (++: 50-100% bound peptide on HAP)
11 | IPITNLR [SEQ ID NO: 11] | + (+: 30-50% bound peptide on HAP)
12 | IPTLPSS [SEQ ID NO: 7] | ++ (++: 50-100% bound peptide on HAP)
13 | MQTVEVT [SEQ ID NO: 14] | + (+: 30-50% bound peptide on HAP)
14 | NERALTL [SEQ ID NO: 13] | + (+: 30-50% bound peptide on HAP)
15 | RILITIP [SEQ ID NO: 10] | + (+: 30-50% bound peptide on HAP)
16 | SPSTHWK [SEQ ID NO: 3] | + (+: 30-50% bound peptide on HAP)
17 | SWGTQTD [SEQ ID NO: 15] | + (+: 30-50% bound peptide on HAP)
18 | TLPASSV [SEQ ID NO: 16] | ++ (++: 50-100% bound peptide on HAP)
19 | TTSTRHI [SEQ ID NO: 12] | + (+: 30-50% bound peptide on HAP)
20 | YPVTPSI [SEQ ID NO: 6] | + (+: 30-50% bound peptide on HAP)
21 | YQGASEN [SEQ ID NO: 8] | ++ (++: 50-100% bound peptide on HAP)
22 | AFP4-His6 (protein, His6 tag) MRFIVSLLAFTAAATATALPASAAKNAKLATSAAFAKQAEGTTCNVGSIACCNSPAETNNDSLLSGLLGAGLLNGLSGNTGSACAKASLIDQLGLLALVDHTEEGPVCKNIVACCPEGTTNCVAVDNAGAGTKAE | + (+: 30-50% bound peptide on HAP)
23 | IPTLPSS-GGG-AFP4-His6 (protein, fusion of HABP peptide IPTLPSS via GGG spacer to antifreeze protein AFP4-His6) MKFSIAAAVVAFAASVAALPPAHDSQFAGNGVGNKGNSNVKFPVPENVTVKQASDKCGDQAQLSCCNKATYAGDTTTVDEGLLSGALSGLIGAGSGAEGLGLFDQCSKLDVAVLIGIQDLVNQKCKQNIACCQNSPSSADGNLIGVGLPCVALGSIL | ++ (++: 50-100% bound peptide on HAP)
